# From patent US20240101599A1, “PEPTIDE, CELL GROWTH PROMOTER, PROTEIN PRODUCTION PROMOTER, CULTURE MEDIUM, CELL GROWTH METHOD USING PEPTIDE, AND PROTEIN PRODUCTION METHOD USING PEPTIDE” (Maruhachi Muramatsu, Inc., priority 2020, published 2024)
# Where two headings read alike, the source gives them in different places. Peptide text beside a SMILES is read from it.
# What was measured:
# CHO-K1 [1] = experiment: Cell growth test of each peptide on coating agent for 3 days; assay type: cell-based; parameters: Viability, 1 / Viability, 2 / Viability, 3 / Viability, Average: unit not given here; conditions: 2.1 mM Gly-Glu-Lys, poly-L-lysine coating; for Cells cell count, Average / Viability, Average: average n=3, 2.2 mM Asp-Gly-Pro; for Cells cell count, 1 / Viability, 1: replicate 1, 2.2 mM Asp-Gly-Pro; for Cells cell count, 2 / Viability, 2: replicate 2, 2.2 mM Asp-Gly-Pro; for Cells cell count, 3 / Viability, 3: replicate 3, 2.2 mM Asp-Gly-Pro
# Protocol: Peptides having the sequences of Gly-Glu-Lys (GEK) and Asp-Gly-Pro (DGP) were synthesized to prepare each peptide solution such that the concentration was a concentration at which the cell number increased the most within a range of 0 mM to 5 mM. In other words, Gly-Glu-Lys (GEK) was adjusted to 21 mM, and Asp-Gly-Pro (DGP) was adjusted to 22 mM, and an amount of 1/10 of the total culture medium volume was added to each well immediately before the cell culture test such that final concentrations were 2.1 mM and 2.2 mM, respectively.
# Poly-L-lysine (Peptide Institute, Inc., Poly-L-Lysine Hydrochloride, code: 3075) was prepared to 0.1 mg/mL, and 200 μL was dispensed into each well of a 24-well plate, which was left to stand in an incubator at 37° C. for 2 hours. After removing the residual liquid with an aspirator, rinsing was performed with distilled water, irradiation was performed with a UV lamp in a clean bench without a lid, and drying was performed overnight to sterilize. A cell suspension prepared such that CHO-K1 (RIKEN BioResource Research Center, cell number: RCB2330) was at 4×10^4 cells/mL was seeded in a 24-well plate at 500 μL/well and cultured in an incubator at 37° C. and 5% CO2 for 24 hours. As a culture medium, an MEMα culture medium (Gibco) containing 10% FBS was used.
# After removing the culture medium from each well and washing with the MEMα culture medium (500 μL), 450 μL of a new MEMα culture medium was dispensed into each well, and each peptide solution (50 μL) was added (total 500 μL/well) to perform culture for 3 days. The cells were recovered to count the cell number. A similar culture test was performed using a system containing neither peptide nor FBS as a comparative sample.
# The culture medium in each well was recovered in a 1.5 mL tube to be rinsed with 200 μL of MEMα, and the rinsed liquid was also recovered in the same 1.5 mL tube. Thereafter, 100 μL of trypsin was added and incubated for 3 minutes. After rinsing with 300 μL of MEMα containing 10% FBS, the rinsed liquid was also recovered in the same 1.5 mL tube. After rinsing again with 200 μL of MEMa containing 10% FBS, the rinsed liquid was also recovered in the same 1.5 mL tube.
# A centrifugation operation was performed on the cells recovered in the 1.5 mL tube. The centrifugation conditions were 1,000 rpm, 10 minutes, and 4° C.
# The supernatant was removed, and 300 μL of Cold PBS (phosphate buffered saline) was added to perform a centrifugation operation under the same conditions. The present operation was repeated twice.
# Suspension was carried out with 100 μL of Binding Buffer, and 2 μL of propidium iodide (PI) was added and stirred in the tube to cause a reaction for 15 minutes at room temperature and with light shielding. Thereafter, the viable cell count and the viability were measured with a flow cytometer.
# The above preparation, culture, and measurement were performed with n=3. Table 13 and FIG. 13 show the viable cell count in each peptide solution, and Table 14 and FIG. 14 show the cell viability in each peptide solution.
# [2] = tested on: serum-free floating CHO DP-12; conditions: GEK 2.05 mM, DGP 1.11 mM + medium supplemented with vitamins and the like; for Amount of protein produced: ELISA
# Protocol: 5 mL of each of a DMEM/F12 basal medium, a medium supplemented with vitamins and the like (DMEM/F12 basal medium+a component supplemented with vitamins and the like), and each peptide solution was added to each well of a 24-well (Deep well) cassette of Micro-24 Bioreactor System (manufactured by Nihon Pall Corporation) to perform culture overnight under the conditions of 37° C., pH 7, and a stirring speed of 650 rpm. On the next day, pH calibration was performed, and thereafter 2 mL of the cell suspension prepared at 3.5×10^5 cells/mL was added to each well of the 24-well (Deep well) cassette, seeded such that the cell density of the floating cells was 1×10^5 cells/mL (7 mL/well), and cultured in the following evaluation medium under culture conditions of 37° C., pH 7, a stirring speed of 650 rpm, and dissolved oxygen of 30%.
# • DMEM/F12 basal medium • Medium supplemented with vitamins and the like (basal medium+component supplemented with vitamins and the like) • GEK (2.05 mM)+medium supplemented with vitamins and the like • DGP (1.11 mM)+medium supplemented with vitamins and the like
# As a culture medium, a DMEM/F12 basal medium in which 200 nM of methotrexate, 10 μg/mL of insulin, 5.5 μg/mL of transferrin, 6.7 ng/mL of sodium selenite, 10 μL/mL of Anti-Clumping Agent, and 10 μL/mL of 10% Pluronic F68 were blended in a DMEM/F12 culture medium (Gibco) was used.
# As the floating cells used, serum-free floating CHO DP-12 obtained by acclimating CHO DP-12 (ATCC, Cat. No. CRL-12445) to serum-free flotation and subculturing using a 100 mL volume Erlenmeyer flask and with a shaking culture device (Custom Bio Shaker CO2-BR-43FL, TAITEC CORPORATION) under the culture conditions of 37° C., 5% CO2, and a stirring speed of 125 rpm was used.
# After the third day of culture, 200 pμL of the culture medium was recovered in a 1.5 mL tube from each well of the 24-well (Deep well) cassette. 50 μL out of this was put in another 1.5 mL tube, and after adding 50 μL of trypan blue to sufficiently suspend, the viable cell count and the viability were measured using a cell counter (Countess II, manufactured by Life Technologies Corporation).
# After the third day of culture, 150 μL out of 200 μL of the culture medium recovered from each well of the 24-well (Deep well) cassette was subjected to a centrifugation operation (5,000 rpm, for 5 minutes) in a 1.5 mL tube, and the supernatant was separately recovered to measure the amount of produced protein by ELISA.
# CHO-K1 [3] = experiment: Relationship between concentration of each peptide solution and viable cell count (absorbance); assay type: cell-based; conditions: for Absorbance (450 nm): 5 days, MEMα without FBS, n = 3 average, 0 mM = 0.0000; for cell growth promotion, order of the peptides: in words, promoted in the order GEK, DGP, AGK, GPP, GGP, AEK, AGG, ASN, EGK (strongest first)
# Protocol: Peptides having the sequences of Gly-Glu-Lys (GEK), Asp-Gly-Pro (DGP), Ala-Gly-Lys (AGK), Gly-Pro-Pro (GPP), Gly-Gly-Pro (GGP), Ala-Glu-Lys (AEK), Ala-Gly-Gly (AGG), Ala-Ser-Asn (ASN), and Glu-Gly-Lys (EGK), and Gly-Gly-Gly (GGG) are synthesized to prepare each of peptide solutions at 10-fold concentrations shown in Tables 1 to 10.
# A cell suspension prepared such that CHO-K1 (RI KEN BioResource Research Center, cell number: RCB2330) was at 3×10^4 cells/mL was seeded in a 96-well plate at 100 μL/well and cultured in an incubator at 37° C. and 5% CO2 for 24 hours. As a culture medium, an MEMα culture medium (Gibco) containing 10% FBS was used.
# After removing the culture medium from each well and washing with the MEMα culture medium (100 μL), 90 μL of a new MEMa culture medium was dispensed into each well, and each peptide solution (10 μL) was added (total 100 μL/well) such that final concentrations were within a range of 0 mM to 5 mM as shown in Tables 1 to 10 to perform culture for 5 days. A similar culture test was performed using a system containing neither peptide nor FBS as a comparative sample. After culturing for 5 days, 10 μL/well of a viable cell count measurement reagent SF (Nacalai Tesque Inc.) was added, and a color reaction was carried out in an incubator at 37° C. and 5% CO2 for 2 hours to measure an absorbance at 450 nm with a plate reader. A reference wavelength was 630 nm. It was confirmed that the absorbance at 450 nm correlated with the cell number.
# The above preparation, culture, and measurement were performed with n=3, and Tables 1 to 10 and FIGS. 1 to 10 show the absorbance at the concentration of each peptide solution.
Compound,"Cells cell count, Average (CHO-K1 [1])","Viability, Average (CHO-K1 [1])","Cells cell count, 1 (CHO-K1 [1])","Viability, 1 (CHO-K1 [1])","Cells cell count, 2 (CHO-K1 [1])","Viability, 2 (CHO-K1 [1])","Cells cell count, 3 (CHO-K1 [1])","Viability, 3 (CHO-K1 [1])",cell number ([2]; Day 0),cell number ([2]; Day 3),Amount of protein produced ([2]; Day 3) [mg/L],cell number ([2]; Day 4),Amount of protein produced ([2]; Day 4) [mg/L],cell number ([2]; Day 5),Amount of protein produced ([2]; Day 5) [mg/L],cell number ([2]; Day 6),Amount of protein produced ([2]; Day 6) [mg/L],cell number ([2]; Day 7),Amount of protein produced ([2]; Day 7) [mg/L],"cell growth promotion, order of the peptides (CHO-K1 [3])",other results
"NCCCC[C@H](NC(=O)[C@H](CCC(=O)O)NC(=O)CN)C(=O)O [GEK, Gly-Glu-Lys] (H-Gly-Glu-Lys-OH; N-terminus and C-terminus assumed)",19.35 ×10^4,94.5,17.94 ×10^4,94.7,19.72 ×10^4,95.1,20.39 ×10^4,93.8,0.10 ×10^6cells/ml,1.73 ×10^6cells/ml,26.32,2.40 ×10^6cells/ml,54.96,2.65 ×10^6cells/ml,75.54,2.64 ×10^6cells/ml,98.46,3.05 ×10^6cells/ml,127.08,cell growth was promoted,Absorbance (450 nm) (CHO-K1 [3]; 0.128 mM peptide): −0.0903; Absorbance (450 nm) (CHO-K1 [3]; 0.257 mM peptide): 0.0657; Absorbance (450 nm) (CHO-K1 [3]; 0.512 mM peptide): 0.3020; Absorbance (450 nm) (CHO-K1 [3]; 1.02 mM peptide): 0.6377; Absorbance (450 nm) (CHO-K1 [3]; 2.05 mM peptide): 1.0050; Absorbance (450 nm) (CHO-K1 [3]; 4.10 mM peptide): 0.5757
"C[C@H](N)C(=O)NCC(=O)N[C@@H](CCCCN)C(=O)O [AGK, Ala-Gly-Lys] (H-Ala-Gly-Lys-OH; N-terminus and C-terminus assumed)",,,,,,,,,,,,,,,,,,,,cell growth was promoted,Absorbance (450 nm) (CHO-K1 [3]; 0.123 mM peptide): 0.0180; Absorbance (450 nm) (CHO-K1 [3]; 0.247 mM peptide): 0.1440; Absorbance (450 nm) (CHO-K1 [3]; 0.494 mM peptide): 0.3360; Absorbance (450 nm) (CHO-K1 [3]; 0.99 mM peptide): 0.5380; Absorbance (450 nm) (CHO-K1 [3]; 1.97 mM peptide): 0.6613; Absorbance (450 nm) (CHO-K1 [3]; 3.95 mM peptide): 0.4693
Gly-Pro-Pro [GPP],,,,,,,,,,,,,,,,,,,,cell growth was promoted,Absorbance (450 nm) (CHO-K1 [3]; 0.137 mM peptide): 0.1163; Absorbance (450 nm) (CHO-K1 [3]; 0.276 mM peptide): 0.2303; Absorbance (450 nm) (CHO-K1 [3]; 0.550 mM peptide): 0.4117; Absorbance (450 nm) (CHO-K1 [3]; 1.10 mM peptide): 0.6443; Absorbance (450 nm) (CHO-K1 [3]; 2.20 mM peptide): 0.5700; Absorbance (450 nm) (CHO-K1 [3]; 4.40 mM peptide): 0.3620
Asp-Gly-Pro [DGP],11.99 ×10^4,78.5,11.69 ×10^4,77.9,10.47 ×10^4,75.6,13.82 ×10^4,82.0,0.10 ×10^6cells/ml,1.15 ×10^6cells/ml,19.86,2.52 ×10^6cells/ml,43.99,2.58 ×10^6cells/ml,63.65,3.50 ×10^6cells/ml,82.54,3.01 ×10^6cells/ml,104.75,cell growth was promoted,Viability ([2]; Day 0): 98.0%; Viability ([2]; Day 3): 97.50%; Viability ([2]; Day 4): 97.50%; Viability ([2]; Day 5): 94.50%; Viability ([2]; Day 6): 87.00%; Viability ([2]; Day 7): 81.50%; Absorbance (450 nm) (CHO-K1 [3]; 0.138 mM peptide): 0.0957; Absorbance (450 nm) (CHO-K1 [3]; 0.278 mM peptide): 0.2464; Absorbance (450 nm) (CHO-K1 [3]; 0.555 mM peptide): 0.4127; Absorbance (450 nm) (CHO-K1 [3]; 1.11 mM peptide): 0.5617; Absorbance (450 nm) (CHO-K1 [3]; 2.22 mM peptide): 0.7657; Absorbance (450 nm) (CHO-K1 [3]; 4.44 mM peptide): 0.4004
